For data set [1], the target named is T1, human A2a adenosine receptor (Homo sapiens, UniProt P29274).
T1 construct: purchased PerkinElmer RB-HA2a; host or cells: HEK293 cell plasma membranes
The data set can be described thus: Ligand binding assay for adenosine A2a receptor ([3H]CGS21680, HEK293 plasma membrane).

The target of the next data set is T2, hERG (Homo sapiens, UniProt Q12809).
T2 construct: expressed in transfected cells; host or cells: HEK293 cells, stably transfected; membranes used
T2 sequence (Q12809 whole entry): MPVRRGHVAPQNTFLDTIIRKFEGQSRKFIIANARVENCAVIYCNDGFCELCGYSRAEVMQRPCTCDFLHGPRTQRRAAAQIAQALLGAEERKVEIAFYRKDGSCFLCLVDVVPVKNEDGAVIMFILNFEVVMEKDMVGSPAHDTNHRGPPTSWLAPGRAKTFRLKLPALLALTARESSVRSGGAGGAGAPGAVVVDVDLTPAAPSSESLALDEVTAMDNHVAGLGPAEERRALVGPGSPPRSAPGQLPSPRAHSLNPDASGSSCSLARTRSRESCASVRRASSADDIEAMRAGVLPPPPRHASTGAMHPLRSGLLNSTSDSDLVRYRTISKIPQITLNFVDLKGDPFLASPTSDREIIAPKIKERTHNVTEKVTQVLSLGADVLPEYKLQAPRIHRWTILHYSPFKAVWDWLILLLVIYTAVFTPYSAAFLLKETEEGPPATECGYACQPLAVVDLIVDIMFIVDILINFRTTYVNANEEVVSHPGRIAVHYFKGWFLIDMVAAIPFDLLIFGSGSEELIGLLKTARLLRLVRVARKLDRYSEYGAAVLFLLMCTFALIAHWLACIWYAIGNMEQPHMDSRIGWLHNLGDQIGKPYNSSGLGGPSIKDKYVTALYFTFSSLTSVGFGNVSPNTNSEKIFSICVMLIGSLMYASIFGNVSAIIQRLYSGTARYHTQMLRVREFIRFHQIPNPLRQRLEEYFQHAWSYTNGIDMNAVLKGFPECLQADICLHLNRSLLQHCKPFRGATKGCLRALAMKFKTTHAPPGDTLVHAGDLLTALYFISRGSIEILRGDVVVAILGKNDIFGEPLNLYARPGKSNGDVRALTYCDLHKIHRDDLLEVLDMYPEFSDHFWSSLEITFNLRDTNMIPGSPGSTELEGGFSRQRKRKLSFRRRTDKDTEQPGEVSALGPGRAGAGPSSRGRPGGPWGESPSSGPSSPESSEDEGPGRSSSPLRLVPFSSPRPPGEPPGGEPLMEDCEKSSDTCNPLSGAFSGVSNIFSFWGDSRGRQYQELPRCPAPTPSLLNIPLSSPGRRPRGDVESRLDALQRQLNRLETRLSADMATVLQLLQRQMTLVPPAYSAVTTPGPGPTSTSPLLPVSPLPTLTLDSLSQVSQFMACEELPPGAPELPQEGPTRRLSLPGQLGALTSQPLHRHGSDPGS
The data set can be described thus: hERG channel binding assay ([3H]astemizole displacement, HEK293 membranes). Particulars: probe [3H]astemizole, at 10 μM, read-out: hERG binding (percent inhibition of [3H]astemizole binding). How it is done: (§1) A hERG binding assay is a primary screening method used to evaluate potential activity of a compound against the hERG potassium channel. The affinity of a compound for the hERG channel is measured in vitro by examining displacement of tritiated-[^3H]astemizole, a high affinity hERG channel ligand. In this assay, membranes from HEK293 cells stably transfected with the human hERG channel cDNA are incubated with a range of concentrations of each test compound, vehicle (10% DMSO), or a positive control and [^3H]astemizole.
After a 1-hr incubation, the membranes are harvested onto GF/B filters, the filters dried and the radioactivity is measured. For each test compound, percent inhibition of [^3H]astemizole binding is calculated relative to control binding and IC50 values determined by linear regression. Each assay includes a positive control (i.e., Cisapride) that is tested in parallel with test compounds. At present, there is no gold standard preclinical test available to predict QT prolongation in humans. Therefore to assess potential cardiotoxicity, cardiovascular effects are evaluated preclinically in several different tests including the hERG channel binding assay.
hERG Channel Binding Assay
In the hERG channel binding assay, the ability of test compounds to displace ^3H-astemizole (a high affinity hERG channel ligand) is measured.
as §1, with “[^3H]astemizole. After a 1-hr incubation, the membranes are harvested onto GF/B filters, the filters dried and the radioactivity is measured.” for “[^3H]astemizole.”
For each test compound, percent inhibition of [^3H]astemizole binding is calculated relative to control binding and IC50 values determined by linear regression. Each assay includes a positive control (i.e., Cisapride) that is tested in parallel with test compounds.
On the technique in general: hERG is a cardiac potassium channel; its block is linked to QT prolongation.

Where [2] appears, read: radioligand [3H]CGS21680, read-out: Ki A2a binding.

The structures appear in SMILES notation. Read-outs that look alike come from different tables or passages of the source.

T1 sequence (P29274 whole entry): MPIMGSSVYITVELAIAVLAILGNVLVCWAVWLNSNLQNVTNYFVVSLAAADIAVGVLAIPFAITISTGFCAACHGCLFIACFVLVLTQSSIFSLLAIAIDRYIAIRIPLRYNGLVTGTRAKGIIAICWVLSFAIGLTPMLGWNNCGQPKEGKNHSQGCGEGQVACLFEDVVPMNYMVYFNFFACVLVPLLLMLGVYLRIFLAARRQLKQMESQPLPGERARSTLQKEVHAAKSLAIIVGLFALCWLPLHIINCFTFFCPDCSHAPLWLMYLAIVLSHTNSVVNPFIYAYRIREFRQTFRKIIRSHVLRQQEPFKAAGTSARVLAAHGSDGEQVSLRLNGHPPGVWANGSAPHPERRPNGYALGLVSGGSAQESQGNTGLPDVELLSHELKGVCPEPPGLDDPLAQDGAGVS

The term Ki denotes the dissociation constant of the complex between target and ligand, obtained from inhibition or displacement. A word on the inhibition: it is the drop in the measured response relative to a control, in per cent. Consider `Nc1nc(-c2ccccc2)c2c(n1)-c1cc(CN3CCC(O)CC3)ccc1C2=O` [Compound 5], for which the Ki in data set [1] (setting [2]) turned out to be 5.8 nM. The inhibition at 1 h, 10 µM at hERG amounted to 26.2%.
The matching figures for `Nc1nc(-c2ccccc2)c2c(n1)-c1cc(CN3CCCC3)ccc1C2=O` [Compound 1]: 6.69 nM and 1.4%.
For the compound `Nc1nc(-c2ccccc2)c2c(n1)-c1cc(CN3CCC(O)C3)ccc1C2=O` (stereo not drawn) [Compound 4], in data set [1] (setting [2]), the Ki was 7.9 nM. Besides, at hERG, the inhibition at 1 h, 10 µM came to 27.8%.
In the case of `Nc1nc(-c2ccccc2)c2c(n1)-c1cc(CN3CCOCC3)ccc1C2=O` [Compound 6], the Ki in data set [1] (setting [2]) stood at 5.39 nM. The inhibition at 1 h, 10 µM at hERG is -12.5%.
The like results for `Nc1nc(-c2ccccc2)c2c(n1)-c1cc(CN3CCC(=O)CC3)ccc1C2=O` [Compound 3] were, in that order, 9.4 nM and 13.8%.
For the compound `Nc1nc(-c2ccccc2)c2c(n1)-c1cc(CNCc3ccccn3)ccc1C2=O` [Compound 2], the affinity in data set [1] corresponds to a Ki of 10.2 nM. Besides, the inhibition at 1 h, 10 µM on hERG turned out to be 34.5%.
